For 30 molecules, inhibition results are on record in patent publication US7435820B2, “Substituted tetrahydro-1H-pyrazolo [3,4-c]pyridines compositions comprising them, and use” (Aventis Pharma S.A., priority 2003, dated 2008).

For one experiment, the target named is T1, human Tie2 (Homo sapiens, UniProt Q02763).
T1 construct: human Tie2 corresponding to amino acids 776-1124 of the intracellular domain was generated by PCR; made in house; host or cells: baculovirus expression system (vector pFastBacGT)
T1 sequence (Q02763 776-1124): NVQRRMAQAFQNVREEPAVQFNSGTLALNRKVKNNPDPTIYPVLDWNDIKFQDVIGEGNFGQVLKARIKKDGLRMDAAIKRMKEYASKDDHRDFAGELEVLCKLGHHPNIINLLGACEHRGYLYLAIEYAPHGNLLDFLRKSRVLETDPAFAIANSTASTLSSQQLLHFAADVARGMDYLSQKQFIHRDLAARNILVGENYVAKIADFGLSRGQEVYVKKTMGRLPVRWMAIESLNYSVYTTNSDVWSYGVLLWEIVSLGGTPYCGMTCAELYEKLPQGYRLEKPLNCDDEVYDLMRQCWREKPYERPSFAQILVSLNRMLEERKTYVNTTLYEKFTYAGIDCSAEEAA
Nature of the experiment: Tie2 kinase inhibition: phosphorylation of GST-PLC (SH2-SH3 fragments) by GST-Tie2, 33P-ATP flashplate. The format is biochemical. How it is done: The coding sequence of human Tie2 corresponding to amino acids 776-1124 of the intracellular domain was generated by PCR using the cDNA isolated from human placenta as model. This sequence was introduced into a baculovirus expression vector pFastBacGT in the form of a GST fusion protein.
The inhibitory effect of the molecules is determined in an assay for phosphorylation of PLC by Tie2 in the presence of GST-Tie2 purified to approximately 80% homogeneity. The substrate is made up of the SH2-SH3 fragments of PLC, the latter being expressed in the form of a GST fusion protein.
The kinase activity of Tie2 is measured in a 20 mM MOPS buffer, pH 7.2, containing 10 mM MgCl2, 10 mM MnCl2, 1 mM DTT and 10 mM of glycerophosphate. A reaction mixture made up of 70 μl of kinase buffer containing 100 ng of GST-Tie2 enzyme per well is placed in a flashplate 96-well plate kept on ice. 10 μl of the molecule to be tested, diluted in DMSO, at a concentration of at most 10% are then added. For a given concentration, each measurement is carried out in quadruplicate. The reaction is initiated by adding 20 μl of solution containing 2 μg of GST-PLC, 2 μM of cold ATP and 1 μCi of ^33P[ATP]. After incubation for 1 hour at 37° C., the reaction is stopped by adding 1 volume (100 μl) of 200 mM EDTA. After removal of the incubation buffer, the wells are washed three times with 300 μl of PBS. The radioactivity is measured on a Wallac MicroBeta 1450.
The inhibition of the Tie2 activity is calculated and expressed as percentage inhibition with respect to the control activity determined in the absence of compound.

Another experiment deals with T2, human KDR enzyme (Homo sapiens, UniProt P35968).
T2 construct: The cytoplasmic domain of the human KDR enzyme was cloned in GST fusion form; GST; made in house; host or cells: SF21 insect cells (baculovirus, pFastBac)
T2 sequence (P35968 786-1356 limits assumed): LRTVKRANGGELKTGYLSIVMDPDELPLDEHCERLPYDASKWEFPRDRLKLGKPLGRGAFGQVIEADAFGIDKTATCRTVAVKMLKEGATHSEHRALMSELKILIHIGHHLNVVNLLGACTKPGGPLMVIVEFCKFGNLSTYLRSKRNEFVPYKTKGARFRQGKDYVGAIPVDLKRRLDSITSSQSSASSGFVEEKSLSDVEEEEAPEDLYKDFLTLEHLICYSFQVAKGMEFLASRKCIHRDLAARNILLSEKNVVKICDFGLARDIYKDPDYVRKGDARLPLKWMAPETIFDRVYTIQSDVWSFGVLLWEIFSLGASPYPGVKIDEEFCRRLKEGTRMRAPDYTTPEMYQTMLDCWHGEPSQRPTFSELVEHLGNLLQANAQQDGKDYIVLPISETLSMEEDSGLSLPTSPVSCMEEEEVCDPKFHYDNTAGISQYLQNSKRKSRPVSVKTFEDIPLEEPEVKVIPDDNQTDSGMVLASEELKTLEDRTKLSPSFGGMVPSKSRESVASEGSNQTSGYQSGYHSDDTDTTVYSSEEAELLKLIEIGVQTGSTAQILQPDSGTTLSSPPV
Nature of the experiment: KDR kinase inhibition: phosphorylation of PLCγ SH2-SH3 substrate by KDR enzyme, 33P-ATP scintillation plate. The format is biochemical. How it is done: The inhibitory effect of the compounds is determined in an assay for phosphorylation of substrate by the KDR enzyme in vitro using a scintillation technique (96-well plate, NEN).
The cytoplasmic domain of the human KDR enzyme was cloned in GST fusion form into the baculovirus expression vector pFastBac. The protein was expressed in SF21 cells and purified to approximately 60% homogeneity. The KDR kinase activity is measured in 20 mM MOPS, 10 mM MgCl2, 10 mM MnCl2, 1 mM DTT, 2.5 mM EGTA, 10 mM b-glycerophosphate, pH=7.2, in the presence of 10 mM MgCl2, 100 μM Na3VO4 and 1 mM NaF. 10 μl of the compound are added to 70 μl of kinase buffer containing 100 ng of KDR enzyme at 4° C. The reaction is initiated by adding 20 μl of solution containing 2 μg of substrate (SH2-SH3 fragment of PLCγ expressed in the form of an GST fusion protein), 2 μCi γ ^33P[ATP] and 2 μM cold ATP. After incubation for 1 hour at 37° C., the reaction is stopped by adding 1 volume (100 μl) of 200 mM EDTA. The incubation buffer is removed and the wells are washed three times with 300 μl of PBS. The radioactivity is measured in each well using a Top Count NXT (Packard) radioactivity counter.
The background noise is determined by measuring the radioactivity in four different wells containing the radioactive ATP and the substrate alone.
A total activity control is measured in four different wells containing all the reagents (γ^33P-[ATP], KDR and PLC-γ substrate) but in the absence of compound.
The inhibition of the KDR activity with the compound of the invention is expressed as percentage inhibition of the control activity determined in the absence of compound.
The compound SU5614 (Calbiochem) (1 μM) is included in each plate as inhibition control.

Where [1] appears, read: Assay 1, read-out: Tie2 % Inhib at 10 μM (FRX) Assay 1.
The mark [2] stands for this setting: Assay 2, read-out: Tie2 % Inhib at 10 μM (FRX) Assay 2.
Setting [3] is: Assay 1, read-out: KDR % Inhib at 10 μM Assay 1.
Where [4] appears, read: Assay 2, read-out: KDR % Inhib at 10 μM Assay 2.

Like-named read-outs stand apart in the source and are kept apart here.

Turning to `Cc1cc2nc(-c3[nH]nc4c3CCN(C(=O)c3ccccc3Oc3ccccc3)C4)[nH]c2cc1C` [Example P-31378-112-5], the inhibition at 10 µM at human Tie2 (setting [1]) was determined as 87.1%; at human Tie2 (setting [2]), 86.4%; on human KDR enzyme (setting [3]), 94.7%; on human KDR enzyme (setting [4]), 95.4%.
In the same order, the values of `Cc1cc2nc(-c3[nH]nc4c3CCN(C(=O)c3ccccc3NCc3ccco3)C4)[nH]c2cc1C` [Example P-31378-112-16] are 88.7%, 88.3%, 90.2% and 89.1%.
As to `Cc1cc2nc(-c3[nH]nc4c3CCN(C(=O)c3ccccc3Nc3cccc(Cl)c3C)C4)[nH]c2cc1C` [Example P-31375-112-10], the inhibition at 10 µM on human Tie2 (setting [1]) was 90.6%; at human Tie2 (setting [2]) it was 87.9%; at human KDR enzyme (setting [3]), 42.3%; at human KDR enzyme (setting [4]), 28.7%.
For the molecule `CCCS(=O)(=O)N1CCc2c(n[nH]c2-c2nc3cc(C)c(C)cc3[nH]2)C1` [Chemistry 29], the inhibition at 10 µM was determined as 47.5% on human Tie2 (read-out: Tie2 % Inhib. 10 μM) and 13.3% at human KDR enzyme (read-out: KDR % Inhib. 10 μM).
Taken in the same sequence, the figures for `Cc1cc2nc(-c3[nH]nc4c3CCN(C(=O)c3ccc(Cl)cc3)C4)[nH]c2cc1C` [Chemistry 48] were 83.8% and 42%.
In the same order, the values of `Cc1cc2nc(-c3[nH]nc4c3CCN(S(=O)(=O)CC(F)(F)F)C4)[nH]c2cc1C` [Chemistry 27] are 65.4% and 22.9%.
Taken in the same sequence, the figures for `Cc1cc2nc(-c3[nH]nc4c3CCN(C(=O)Nc3ccc(Cl)cc3)C4)[nH]c2cc1C` [Chemistry 63] were 23.8% and -0.3%.
On to `CCCCN1CCc2c(n[nH]c2-c2nc3cc(C)c(C)cc3[nH]2)C1` [Chemistry 20], for which the inhibition at 10 µM at human Tie2 (read-out: Tie2 % Inhib. 10 μM) was found to be 47.6%; on human KDR enzyme (read-out: KDR % Inhib. 10 μM), 1.65%.
Taken in the same sequence, the figures for `COc1ccccc1S(=O)(=O)N1CCc2c(-c3nc4cc(C)c(C)cc4[nH]3)n[nH]c2C1` [Chemistry 39] were 97.9% and 30.9%.
In the same order, the values of `Cc1cc2nc(-c3[nH]nc4c3CCN(C(=O)c3ccccc3Cl)C4)[nH]c2cc1C` [Chemistry 46] are 96.7% and 73%.
In the case of `CCCN1CCc2c(n[nH]c2-c2nc3cc(C)c(C)cc3[nH]2)C1` [Chemistry 18], the inhibition at 10 µM was 55% at human Tie2 (read-out: Tie2 % Inhib. 10 μM) and -3.7% at human KDR enzyme (read-out: KDR % Inhib. 10 μM).
For the molecule `Cc1cc2nc(-c3[nH]nc4c3CCN(S(=O)(=O)c3ccccc3C)C4)[nH]c2cc1C` [Chemistry 36], the inhibition at 10 µM at human Tie2 (read-out: Tie2 % Inhib. 10 μM) worked out at 90.8%; at human KDR enzyme (read-out: KDR % Inhib. 10 μM), 49.4%.
`CCCCC(=O)N1CCc2c(n[nH]c2-c2nc3cc(C)c(C)cc3[nH]2)C1` [Chemistry 56]: the inhibition at 10 µM at human Tie2 (read-out: Tie2 % Inhib. 10 μM) turned out to be 92.5%; on human KDR enzyme (read-out: KDR % Inhib. 10 μM) it was 46.6%.
Taken in the same sequence, the figures for `Cc1cc2nc(-c3[nH]nc4c3CCN(C(=O)Nc3cccs3)C4)[nH]c2cc1C` [Chemistry 65] were 85.9% and 63.3%.
Taken in the same sequence, the figures for `Cc1cc2nc(-c3[nH]nc4c3CCN(C(=O)Cc3ccccc3)C4)[nH]c2cc1C` [Chemistry 43] were 84.4% and 10.9%.
On to `Cc1cc2nc(-c3[nH]nc4c3CCN(C(=O)c3ccccc3Cc3ccccc3)C4)[nH]c2cc1C` [Example P-31378-112-6], for which the inhibition at 10 µM on human Tie2 (setting [1]) was found to be 92.7%; on human Tie2 (setting [2]), 93.8%; at human KDR enzyme (setting [3]), 71.4%; on human KDR enzyme (setting [4]), 68%.
As to `COc1ccccc1NC(=O)N1CCc2c(n[nH]c2-c2nc3cc(C)c(C)cc3[nH]2)C1` [Chemistry 67], the inhibition at 10 µM at human Tie2 (read-out: Tie2 % Inhib. 10 μM) amounted to 18.1%; on human KDR enzyme (read-out: KDR % Inhib. 10 μM), 8.1%.
Take `Cc1cc2nc(-c3[nH]nc4c3CCN(C(=O)CN(C)C)C4)[nH]c2cc1C` [Chemistry 55]: the inhibition at 10 µM amounted to 65.4% at human Tie2 (read-out: Tie2 % Inhib. 10 μM) and 15.9% on human KDR enzyme (read-out: KDR % Inhib. 10 μM).
Turning to `Cc1cc2nc(-c3[nH]nc4c3CCN(S(=O)(=O)Cc3ccccc3)C4)[nH]c2cc1C` [Chemistry 24], the inhibition at 10 µM was 91.5% on human Tie2 (read-out: Tie2 % Inhib. 10 μM) and 70.8% on human KDR enzyme (read-out: KDR % Inhib. 10 μM).
`Cc1cc2nc(-c3[nH]nc4c3CCN(C(=O)c3ccccc3CCc3ccccc3)C4)[nH]c2cc1C` [Example P-31378-112-7]: the inhibition at 10 µM came to 92.7% at human Tie2 (setting [1]), 92% on human Tie2 (setting [2]), 68.6% at human KDR enzyme (setting [3]) and 64.3% at human KDR enzyme (setting [4]).
For the molecule `Cc1cc2nc(-c3[nH]nc4c3CCN(C(=O)c3cccs3)C4)[nH]c2cc1C` [Chemistry 57], the inhibition at 10 µM at human Tie2 (read-out: Tie2 % Inhib. 10 μM) worked out at 94.6%; at human KDR enzyme (read-out: KDR % Inhib. 10 μM), 75.2%.
In the same order, the values of `Cc1cc2nc(-c3[nH]nc4c3CCN(S(=O)(=O)Cc3ccc(F)cc3)C4)[nH]c2cc1C` [Chemistry 33] are 95.9% and 57.7%.
In the same order, the values of `Cc1cc2nc(-c3[nH]nc4c3CCN(C(=O)c3cccc(Cl)c3)C4)[nH]c2cc1C` [Chemistry 47] are 87.7% and 78.5%.
For the molecule `Cc1cc2nc(-c3[nH]nc4c3CCN(C(=O)c3cccc(Cl)c3Cl)C4)[nH]c2cc1C` [Chemistry 42], the results for the inhibition at 10 µM on human Tie2 (read-out: Tie2 % Inhib. 10 μM) and at human KDR enzyme (read-out: KDR % Inhib. 10 μM) were 97.4% and 52.6%, respectively.
In the same order, the values of `Cc1cc2nc(-c3[nH]nc4c3CCN(C(=O)NCc3ccccc3)C4)[nH]c2cc1C` [Chemistry 60] are 64.8% and 33.5%.
Taken in the same sequence, the figures for `Clc1cccc(CN2CCc3c(n[nH]c3-c3nc4ccccc4[nH]3)C2)c1` [Chemistry 70] were 65.5% and 92.1%.
In the same order, the values of `COc1ccc(S(=O)(=O)N2CCc3c(n[nH]c3-c3nc4cc(C)c(C)cc4[nH]3)C2)cc1` [Chemistry 34] are 84.7% and 18.1%.
Regarding `CC(=O)N1CCc2c(n[nH]c2-c2nc3cc(C)c(C)cc3[nH]2)C1` [Chemistry 44], the inhibition at 10 µM on human Tie2 (read-out: Tie2 % Inhib. 10 μM) is 90.8%; at human KDR enzyme (read-out: KDR % Inhib. 10 μM), 41.1%.
Taken in the same sequence, the figures for `Cc1cc2nc(-c3[nH]nc4c3CCN(S(=O)(=O)c3ccccc3)C4)[nH]c2cc1C` [Chemistry 23] were 92.5% and 48%.
As for `Cc1cc2nc(-c3[nH]nc4c3CCN(Cc3ccc(Cl)cc3)C4)[nH]c2cc1C` [Chemistry 12], the inhibition at 10 µM was 60.3% at human Tie2 (read-out: Tie2 % Inhib. 10 μM) and 69% at human KDR enzyme (read-out: KDR % Inhib. 10 μM).
